Results: the METLIN SMRT retention time set (Domingo-Almenara et al. 2019)

Test: gradient 5% acetonitrile 3 min, to 50% in 2 min, to 85% in 15 min, held 3 min, 100 µL/min
Conditions: column: Zorbax Extend-C18 2.1 x 50 mm; eluents: water / acetonitrile, 0.1% formic acid
In short: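 The mobile phases were water and acetonitrile, each with 0.1% formic acid, pumped at 100 μL/min through a Zorbax Extend-C18 column (2.1 × 50 mm, 1.8 μm). Pure standards were injected as mixtures of ~100 molecules and detected by a quadrupole time-of-flight mass spectrometer in positive and negative ionization mode. Retention time came from computationally picked adduct peaks, each inspected by hand.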
`Cn1cc(CCN2CCC(C(=O)NCc3ccccc3)CC2)c2cccnc21` gave an RP-LC retention time of 588 s. For `O=C(NCc1ccc(Cl)cc1)C1CCN(c2cncnc2N2CCOCC2)CC1`, the RP-LC retention time was 647 s. For `Cc1nn(CC(=O)NCc2ccco2)c(=O)c2nn(-c3ccccc3)c(C)c12`, the RP-LC retention time was 732 s. In the case of `COc1ccccc1-c1nnc(-c2cccc(S(=O)(=O)N3CCCC3)c2)o1`, the RP-LC retention time is reported as 885 s. `Cc1cc(N2CCN(C(=O)Nc3cccc(C(F)(F)F)c3)CC2)nc(N2CCCC2)n1` showed an RP-LC retention time of 760 s. With `CCn1ccc2sc(C)c(C(=O)NCc3cccc(Cl)c3)c2c1=O` the RP-LC retention time was 926 s. `O=C(NCCCN1CCOCC1)C1CCCN(c2ccc(=O)n(-c3cccc(Cl)c3)n2)C1` (stereo not given) gave an RP-LC retention time of 610 s. Work on `COc1cccc(C(=O)NCc2nnnn2C2CCCCC2)c1OC` yielded an RP-LC retention time of 784 s. In the case of `Cc1nn2c(CNC(=O)c3ccc(Br)cc3)c(C)nc2s1`, the RP-LC retention time is reported as 656 s. With `Cc1cc(C)n2nc(SCC(=O)N(c3ccccc3)c3ccccc3)nc2n1` the RP-LC retention time was 824 s. In the case of `CC(C)C(=O)Nc1ccc2c(c1)nc(CN1CCOCC1)n2C(C)C`, the RP-LC retention time is reported as 607 s. `CCc1ccc(C2=C(C)C(N3CCC(C(=O)NCc4ccc(C)o4)CC3)=NS2(=O)=O)cc1` showed an RP-LC retention time of 944 s. For `CC1CCCN(c2nn(CC(=O)Nc3cccc(C(C)C)c3)c(=O)c3ccccc23)C1` (stereo not given), the RP-LC retention time was 1300 s. `Cc1nnc(-c2ccc3ccn(CC(=O)N4CCc5ccccc54)c3c2)o1` gave an RP-LC retention time of 852 s. `CCOC(=O)c1ccc(NC(=O)C2CCCN2S(=O)(=O)c2cc(C(=O)OC)n(C)c2)cc1` (stereo not given) showed an RP-LC retention time of 900 s. `Cc1ccc(-c2noc(C3CCCN3S(=O)(=O)c3ccc(F)c(Cl)c3)n2)cc1` (stereo not given) showed an RP-LC retention time of 1240 s. For `Cc1cc(C)c2c(-n3cccc3)nn(CC(=O)NCc3cccc(Br)c3)c2n1`, the RP-LC retention time was 1020 s. In the case of `CC(C)OCCCNC(=O)CN1C(=O)CCn2nc(-c3cn(C)c4ccccc34)cc21`, the RP-LC retention time is reported as 738 s. In the case of `CCn1cnc(S(=O)(=O)N2CCC(C(=O)NCc3ccccc3Cl)CC2)c1`, the RP-LC retention time is reported as 720 s. Molecule `CC(C)NC(=O)c1ccc2c(c1)CCCN2S(C)(=O)=O` has an RP-LC retention time of 717 s. Molecule `Cc1cc(NC(=O)Cn2c(=O)c3cc(C4CC4)nn3c3ncccc32)ccc1F` has an RP-LC retention time of 818 s. For `O=C(c1nc(CS(=O)(=O)c2ccccc2)no1)N1CCN(c2ccccn2)CC1`, the RP-LC retention time was 616 s. Molecule `O=C(CC1CCN(C(=O)c2ccc3nc(-c4ccccc4)oc3c2)CC1)NCc1ccco1` has an RP-LC retention time of 789 s. In the case of `O=C(Cc1cccs1)Nc1nnc(SCc2ccc([N+](=O)[O-])cc2)s1`, the RP-LC retention time is reported as 861 s. With `COc1ccc(-c2nnc(COc3ccc(NC(=O)C4CCCC4)cc3)o2)cc1` the RP-LC retention time was 946 s. Molecule `O=C(Cn1nc2ccc(C(=O)NCc3ccccc3)cn2c1=O)NC1CCc2ccccc21` (stereo not given) has an RP-LC retention time of 766 s. `CC(C(=O)NCCCN1CCCCCC1)n1c(=O)c(C(F)(F)F)nc2ccccc21` (stereo not given) showed an RP-LC retention time of 611 s. `O=C(NCCc1noc(C2CC2)n1)C1CCCC1` gave an RP-LC retention time of 699 s. `Cc1nnc(SCC(=O)c2ccc3c(c2)OCCO3)s1` gave an RP-LC retention time of 746 s. With `Cc1cccc(NC(=O)/C=C/c2ccc([N+](=O)[O-])cc2)c1` the RP-LC retention time was 878 s. With `O=C(NC1CC1)C1CCN(c2nc3ccc(-c4cccc(F)c4)nc3s2)CC1` the RP-LC retention time was 918 s. `Cc1ccc(NC(=O)Cn2c(C)nc3c(sc4nc(-c5ccccc5)ccc43)c2=O)cc1` showed an RP-LC retention time of 1060 s. `COc1ccc(OCC(=O)N2CCN(c3cc(=O)n(C)c(=O)n3C)CC2)cc1` gave an RP-LC retention time of 655 s. `CCc1nc2cc(-c3noc(COc4ccc(OC)cc4)n3)ccc2o1` showed an RP-LC retention time of 1070 s. `COc1ccc(OC)c(CNC(=O)CN2C(=O)C(C)(C)c3cc(C)ccc32)c1` gave an RP-LC retention time of 689 s. `CN(C)c1ccc(C(=O)NCC(=O)Nc2nc3ccccc3[nH]2)cc1` gave an RP-LC retention time of 625 s. Molecule `CCOC(=O)C1CCCN(C(=O)CCCOc2cc(=O)n(C)c3ccccc23)C1` (stereo not given) has an RP-LC retention time of 800 s. For `COc1ccc(OC)c(NC(=O)CN2c3ccc(F)cc3-c3ccccc3S2(=O)=O)c1`, the RP-LC retention time was 1010 s. Molecule `COc1cc(NC(=O)CN2C(=O)COc3ccc(C(=O)N(C)C)cc32)cc(OC)c1` has an RP-LC retention time of 689 s. `COCCNC(=O)Nc1cccn2c(C)nnc12` showed an RP-LC retention time of 556 s. For `CCOc1ccccc1NC(=O)Nc1ccc2c(c1)CC(=O)N2`, the RP-LC retention time was 675 s. Molecule `CCN1CCN(CCCNC(=O)C2CCCN(C(=O)c3cc4sccc4n3CC)C2)CC1` (stereo not given) has an RP-LC retention time of 566 s. In the case of `O=C(NCc1ccc(F)cc1)c1ccc(=O)n(CCN2CCOCC2)c1`, the RP-LC retention time is reported as 599 s. Molecule `CN(CC1CCOC1)C(=O)Nc1ccccc1F` (stereo not given) has an RP-LC retention time of 656 s. Molecule `O=C(NCCc1ccccn1)c1sc2ncccc2c1-n1cccc1` has an RP-LC retention time of 610 s.
